Data published in article PMC10996005, “Identification and Development of Cyclic Peptide Inhibitors of Hypoxia Inducible Factors 1 and 2 That Disrupt Hypoxia-Response Signaling in Cancer Cells” (Journal of the American Chemical Society, 2024).
Where a SMILES comes first, the peptide text is derived from it. [ ]: non-standard residue; d: D form. Phe(4-I) = N[C@@H](Cc1ccc(I)cc1)C(=O)O

How the values were obtained:
HIF-1α PAS-B domain = target: T1, HIF-1α PAS-B domain (Homo sapiens, UniProt Q16665); test: MST binding to the PAS-B domain of HIF-1α
T1 construct: made in house
T1 sequence (Q16665 238-349 limits assumed): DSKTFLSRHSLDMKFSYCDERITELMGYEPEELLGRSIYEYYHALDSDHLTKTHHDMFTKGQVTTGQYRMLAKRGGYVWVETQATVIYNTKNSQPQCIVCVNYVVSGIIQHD
Method: All reagents were purchased from Fisher Scientific or Sigma Aldrich UK unless specified otherwise.
Restriction enzymes and microbiology reagents were purchased from New England Biolabs Inc., Fisher Scientific (UK) or Promega (UK) and were used as directed by the manufacturer. Primers and oligonucleotides were synthesised by Integrated DNA Technologies (UK). DNA sequencing was carried out by Eurofins MWG Operon (Germany).
Construction of the RTHS and SICLOPPS library, screening, purification of recombinant HIF proteins, and the PLA was conducted as previously described in Miranda et al., J. Am. Chem. Soc., 2013, 135(28); […]
Protein labelling with MST dye
Protein was buffer exchanged from storage buffer into labelling buffer (0.1 M NaHCO3, pH 8.5) using a PD spintrap G-25 column (GE healthcare). The protein concentration was then adjusted to 20 µM.
The commercially sourced MST dye (NanoTemper) was prepared as a 470 µM solution in DMSO, which was then further diluted to 60 µM using labelling buffer. To the protein solution was added an equal volume of dye solution, and the labelling reaction was left for 1 hour in the dark at room temperature.
The labelled protein was separated from unreacted dye by elution through a PD minitrap G-25 column (GE healthcare). Labelled protein was then aliquoted and stored at -80 °C. Extent of labelling was measured by the absorbance obtained using the UV-vis mode on a NanoDrop ND-1000 Spectrophotometer (NanoDrop Technologies, USA).
Labelled protein was thawed on ice and diluted to 50 nM in assay buffer containing 50 mM Tris pH 8.0, 150 mM NaCl, 5% (v/v) glycerol, 1 mM TCEP and 0.05% TWEEN-20. The protein solution was then centrifuged at 12000 rpm for 15 minutes at 4 °C and left on ice. Compounds were prepared and serially diluted in DMSO at 10x assay concentration, before diluting to 2x assay concentration in assay buffer.
The 2x compound solutions were then mixed 1:1 (v/v) with 50 nM labelled protein solution and left to incubate for 1 hour at room temperature. Solutions were then loaded into Monolith NT.115 Premium Capillaries (NanoTemper) and placed in the sample tray. MST experiments were carried out

T-Rex-293 cells = test: CytoTox-Glo cytotoxicity / viability assay; assay type: cell-based, human; settings: doses up to 75 μM
Source text: Following in vitro characterization and optimization of binding, we next assessed the effect of our cyclic peptides in mammalian cells. A cell line with a stably integrated reporter was constructed, in which the expression of yellow fluorescent protein (YFP) was placed under the control of a HRE. Thus, hypoxia would be expected to increase YFP expression (and subsequent fluorescence) in these cells, whereas treatment with a cell-permeable HIF inhibitor would be expected to reduce this fluorescence signal. A fusion cassette was designed containing the YFP gene preceded by three copies of the HRE sequence. This cassette was stably integrated into T-REx-293 cells as previously described.[12] […] The effect of this compound on the viability of T-Rex-293 was assessed with no effect observed at doses up to 75 μM (Figure S9a). […] It should be noted that the relative activity of each compound in this assay will be a combination of its cell permeability and HIF-inhibiting activity. […] We therefore continued to further characterize the cell activity of the 4-iodo-phenylalanine derivative. […]
Pancreatic cancer cells (PANC-1) were plated in a T75 flask at 80% confluency overnight under normoxic conditions. […] The concentration of the extracted proteins was measured using the BCA Protein Assay Kit (Sigma) following the manufacturer's instructions. […]

HIF-1α in Panc-1 cells = target: T2, HIF-1α in Panc-1 cells (Homo sapiens, UniProt Q16665); test: Cellular thermal shift assay; assay type: cell-based; settings: 40 μM, samples heated to 54 °C
T2 construct: endogenous in cells; host or cells: PANC-1
T2 sequence (Q16665 whole entry): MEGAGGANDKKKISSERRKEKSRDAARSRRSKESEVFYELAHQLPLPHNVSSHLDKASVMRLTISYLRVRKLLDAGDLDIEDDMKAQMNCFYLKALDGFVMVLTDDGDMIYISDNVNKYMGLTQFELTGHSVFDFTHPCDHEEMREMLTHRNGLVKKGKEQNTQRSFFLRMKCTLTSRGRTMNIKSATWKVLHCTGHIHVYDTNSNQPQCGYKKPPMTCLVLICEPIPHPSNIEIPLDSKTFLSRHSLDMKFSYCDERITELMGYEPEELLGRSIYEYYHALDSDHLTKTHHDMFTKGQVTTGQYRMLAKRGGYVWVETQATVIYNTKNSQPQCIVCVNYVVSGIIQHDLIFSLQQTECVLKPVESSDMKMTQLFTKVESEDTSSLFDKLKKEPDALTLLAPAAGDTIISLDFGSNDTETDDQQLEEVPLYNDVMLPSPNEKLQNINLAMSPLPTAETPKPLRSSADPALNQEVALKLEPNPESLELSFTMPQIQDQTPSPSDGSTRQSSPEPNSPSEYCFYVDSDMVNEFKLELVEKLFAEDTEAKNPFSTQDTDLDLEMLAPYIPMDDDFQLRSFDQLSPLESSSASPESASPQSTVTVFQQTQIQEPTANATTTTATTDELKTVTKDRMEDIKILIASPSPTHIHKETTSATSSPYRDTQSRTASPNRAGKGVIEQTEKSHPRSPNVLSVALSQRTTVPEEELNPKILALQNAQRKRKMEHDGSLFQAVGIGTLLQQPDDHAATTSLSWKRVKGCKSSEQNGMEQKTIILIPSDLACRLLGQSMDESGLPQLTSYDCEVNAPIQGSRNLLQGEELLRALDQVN
Method: Next, we used a cellular-thermal shift assay[40] to assess whether our lead molecule binds to HIF-1α in the intracellular environment. We observed a 2.9 ± 0.4-fold increased level of HIF-1α protein in Panc-1 (pancreatic cancer) cells treated with 40 μM cyclo-CRLII(4-iodo)F compared to DMSO control in samples heated to 54 °C, indicating intracellular binding of this compound to its protein target (Figure 6d). […]
highest pLDDT score was relaxes with the inbuilt amber energy minimisation and used for subsequent docking steps. HADDOCK docking was performed by assigning the HIF-1α PAS-B domain (residues 214-335) and CRLIIF residues 1, 5 and 6 as active residue binders and clustered using the inbuilt RMSD clustering algorithm.
Cellular Thermal Shift Assay
Pancreatic cancer cells (PANC-1) were plated in a T75 flask at 80% confluency overnight under normoxic conditions. The cells were then dosed with compound and incubated for 18 hours under hypoxic conditions (1% O2, 94% N2, 5% CO2, 80% Humidity). The cells were subsequently washed with PBS and divided into several aliquots, each of which was exposed to different temperatures (45°C, 48°C, 51°C, and 54°C) for 30 seconds on a thermal cycler (Bio-Rad). […] The concentration of the extracted proteins was measured using the BCA Protein Assay Kit (Sigma) following the manufacturer's instructions. […]

- improvement in HIF-1α binding affinity compared to the parent cyclic peptide cyclo-CRLIIF (HIF-1α PAS-B domain; MST KD ratio): 4.6 fold
- Kd (HIF-1α PAS-B domain; MST, mean ± SEM, n = 2 (n = 1 for most C1 analogues, n = 3 in Figure S2), read-out: KD for HIF-1α PAS-B): 800 ± 200 nM
- increased level of HIF-1α protein compared to DMSO control (HIF-1α in Panc-1 cells): 2.9 ± 0.4 fold
SMILES: CC[C@H](C)[C@@H]1NC(=O)[C@H](CC(C)C)NC(=O)[C@H](CCCNC(=N)N)NC(=O)[C@H](CS)NC(=O)[C@H](Cc2ccc(I)cc2)NC(=O)[C@H]([C@@H](C)CC)NC1=O [cyclo-CRLII(4-iodo)F] (cyclo(CRLII[Phe(4-I)]))
- effect on the viability of T-Rex-293 (T-Rex-293 cells): no effect
